Measurements reported in ChEMBL document CHEMBL4400577, “Fragment-based Discovery of a Small-Molecule Protein Kinase C-iota Inhibitor Binding Post-kinase Domain Residues” (ACS Med Chem Lett, 2019).
Values after ≈ are worked out from the molar mass of the structure shown.

Experiments:
Huh-7 = assay: Antiproliferative activity against human HuH7 cells assessed as cell growth inhibition measured after 72 hrs by CellTiter-Glo luminescent assay; type: functional; conditions: Huh-7, 72 h
[1] = molecular target: T1, Protein kinase C iota type (Homo sapiens, UniProt P41743); assay: Inhibition of recombinant human full length N-terminal GST-fused PKCi (1 to 587 residues) expressed in baculovirus expression system using 5-FAM-RFARKGSLRQKNV as substrate measured after 60 mins by caliper microfluidic mobility shift assay
T1 sequence (P41743 whole entry): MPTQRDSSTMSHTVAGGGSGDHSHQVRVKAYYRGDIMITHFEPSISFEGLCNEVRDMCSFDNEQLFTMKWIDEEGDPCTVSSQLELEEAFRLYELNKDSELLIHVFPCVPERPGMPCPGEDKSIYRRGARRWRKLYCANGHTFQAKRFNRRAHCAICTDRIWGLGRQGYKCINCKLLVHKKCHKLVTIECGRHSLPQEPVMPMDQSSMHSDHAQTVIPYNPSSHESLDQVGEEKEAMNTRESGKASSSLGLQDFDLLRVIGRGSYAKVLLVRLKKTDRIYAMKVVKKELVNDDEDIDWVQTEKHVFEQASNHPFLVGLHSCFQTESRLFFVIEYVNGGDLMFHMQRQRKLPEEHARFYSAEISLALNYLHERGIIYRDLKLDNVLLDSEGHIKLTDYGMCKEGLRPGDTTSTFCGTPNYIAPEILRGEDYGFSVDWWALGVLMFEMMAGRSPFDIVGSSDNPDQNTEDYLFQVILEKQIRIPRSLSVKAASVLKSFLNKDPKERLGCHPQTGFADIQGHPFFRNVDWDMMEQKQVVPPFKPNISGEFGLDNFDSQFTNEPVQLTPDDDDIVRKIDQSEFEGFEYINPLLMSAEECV

[2] = Permeability across apical to basolateral side in human Caco2 cells; type: ADME, cell-based; conditions: Caco-2
[3] = Solubility of the compound at pH 7.4; type: physicochemical; conditions: buffer
[4] = Clearance in human liver microsomes; type: ADME, Microsome; conditions: read-out: CLH
[5] = Clearance in mouse liver microsomes; type: ADME, Microsome; conditions: read-out: CLH

| Structure (SMILES) | IC50 [1] [µM] | further results |
| --- | --- | --- |
| N[C@H](CNc1nc(-c2ccncc2)nc2sc3c(c12)CCCC3)Cc1ccccc1 |  | GI50 (Huh-7): 3.1 µM |
| Nc1ncc(-c2ccccc2)cc1C(=O)Nc1ccncc1 | 32 |  |
| NCc1cccc(-c2cnc(N)c(C(=O)Nc3ccncc3)c2)c1 | 0.71 |  |
| Nc1nccnc1C(=O)Nc1ccc(O)cc1 | 76 |  |
| Nc1nccnc1C(=O)Nc1ccncc1 | 23 |  |
| Cc1cc(NC(=O)c2nccnc2N)cc(C)n1 | 263 |  |
| NC(=O)c1cccc(-c2cnc(N)c(C(=O)Nc3ccncc3)c2)c1 | > 384 |  |
| Nc1nccnc1C(=O)Nc1ccnc2[nH]ccc12 | > 384 |  |
| Nc1nccnc1C(=O)NCc1ccncc1 | > 384 |  |
| Nc1nccnc1C(=O)Nc1ccncc1Br | > 384 |  |
| Nc1ncc(-c2cccc(N3CCNCC3)c2)cc1C(=O)Nc1ccncc1 | 0.34 | Papp A→B [2]: 0.28 ×10⁻⁶ cm/s; solubility [3]: 164 µg/mL (≈ 438 µM); microsomal CLint [4]: 5.1 µL/min/mg; microsomal CLint [5]: 71 µL/min/mg; GI50 (Huh-7): 11.3 µM |
| Nc1ncc(-c2cccc(N3CCNCC3)c2)nc1C(=O)Nc1ccncc1 | 0.27 |  |
| CCc1cc(NC(=O)c2nccnc2N)ccn1 | 19.6 |  |
| Nc1nccnc1C(=O)Nc1cccc(C2CC2)c1 | 42.2 |  |
| Nc1ncccc1C(=O)Nc1ccncc1 | 22 |  |
| CC(C)(C)c1cc(NC(=O)c2nccnc2N)ccn1 | 24 |  |
| Nc1nccnc1C(=O)Nc1cccnc1 | 77 |  |
| Nc1nccnc1C(=O)Nc1ccnc(Br)c1 | > 384 |  |
| Nc1ncc(Br)cc1C(=O)Nc1ccncc1 | > 384 |  |
| Nc1nccnc1C(=O)Nc1ccc2[nH]ccc2c1 | 34 |  |
